Measured values as given in ChEMBL document CHEMBL4483862, “Open-source discovery of chemical leads for next-generation chemoprotective antimalarials” (2018).

Tested on: Plasmodium berghei
Test: Luciferase/luciferin-expressing antifolate-resistant parasites were used to infect a culture of HepG2 cells that were pre-incubated with compounds. Infected hepatocytes emit light due to the luciferase reaction. Assay results are presented as the percent inhibition of light emission compared to control. […]
Format: functional
Settings: sporozoite; for IC90: read-out: LUCIFERASE INFECTION ASSAY - IC90
[1] = read-out: LUCIFERASE INFECTION ASSAY - IC50

SMILES	IC90 [µM]	IC50 [1] [µM]	also measured
Cn1nc(SCC(=O)NN)c(=O)n(C)c1=O	3.54	–	IC50 (PBLUC_HILL_SLOPE 9.87, PBLUC_R_SQUARED 0.424, read-out: LUCIFERASE INFECTION ASSAY - IC50): 2.84 µM
O=C(Nc1cccc(F)c1)N1CCC2(CC1)OCc1cc(-c3ccco3)ccc1O2	> 8.08	> 8.08	–
Cc1n[nH]c(Nc2cc(Cl)cc(Cl)c2)nc1=O	> 12.2	> 12.2	–
CN(Cc1cnn(Cc2ccccc2)c1)C(=O)c1cccc(S(=O)(=O)N2CCc3ccccc32)c1	9.38	–	IC50 (HEPG2TOX_HILL_SLOPE 1.04, HEPG2TOX_R_SQUARED 0.954, PBLUC_HILL_SLOPE 3.29, PBLUC_R_SQUARED 0.175, read-out: LUCIFERASE INFECTION ASSAY - IC50): 4.81 µM
Cc1cc(C(=O)CSc2nc3ccccc3[nH]2)c(C)n1-c1ccc(F)cc1	0.513	–	IC50 (HEPG2TOX_HILL_SLOPE 0.596, HEPG2TOX_R_SQUARED 0.924, PBLUC_HILL_SLOPE 3.63, PBLUC_R_SQUARED 0.908, read-out: LUCIFERASE INFECTION ASSAY - IC50): 0.28 µM
Cc1ccc(C2=NN=C/C2=N\Nc2cc(Cl)cc(Cl)c2)cc1	3.57	–	IC50 (FFLUC_HILL_SLOPE 4.14, FFLUC_R_SQUARED 0.778, HEPG2TOX_HILL_SLOPE 3.13, HEPG2TOX_R_SQUARED 0.962, PBLUC_HILL_SLOPE 34.3, PBLUC_R_SQUARED 0.21, read-out: LUCIFERASE INFECTION ASSAY - IC50): 3.34 µM
CCCCc1ccc(NC2=C(Cl)C(=O)c3ccccc3C2=O)cc1	3.62	–	IC50 (FFLUC_HILL_SLOPE 9.03, FFLUC_R_SQUARED 0.305, HEPG2TOX_HILL_SLOPE 8.62, HEPG2TOX_R_SQUARED 0.549, PBLUC_HILL_SLOPE 14.3, PBLUC_R_SQUARED 0.552, read-out: LUCIFERASE INFECTION ASSAY - IC50): 3.1 µM
COc1ccc(CCn2nc(C(=O)NC3CC3)c3c2CCN(C(=O)c2cc(C)n[nH]2)C3)cc1	4.91	–	IC50 (PBLUC_HILL_SLOPE 5.54, PBLUC_R_SQUARED 0.701, read-out: LUCIFERASE INFECTION ASSAY - IC50): 3.31 µM
CN(C)c1ccc(-c2nnc3ccccn23)cc1	> 13.8	6.56	–
CCOc1ccc(S(=O)(=O)N2c3ccccc3C(C(N)=O)CC2C)cc1OCC (stereo not given)	> 10	> 10	–
Cc1nc(NCc2ccc(N3CCN(C)CC3)nc2)c2c(-c3ccccc3)csc2n1	3.73	–	IC50 (HEPG2TOX_HILL_SLOPE 1.47, HEPG2TOX_R_SQUARED 0.785, PBLUC_HILL_SLOPE 14.9, PBLUC_R_SQUARED 0.788, read-out: LUCIFERASE INFECTION ASSAY - IC50): 3.22 µM
COc1ccc(-c2csc3ncnc(NC(C)c4ccc(Cl)cc4Cl)c23)cc1 (stereo not given)	> 10	> 10	–
CC(C)(C)c1csc(Cc2ccc(-c3csnn3)cc2)n1	8.68	–	IC50 (HEPG2TOX_HILL_SLOPE 6.43, HEPG2TOX_R_SQUARED 0.485, PBLUC_HILL_SLOPE 2.92, PBLUC_R_SQUARED 0.738, read-out: LUCIFERASE INFECTION ASSAY - IC50): 4.09 µM
C[C@H](Nc1ccc(C(F)(F)F)cc1[N+](=O)[O-])C(=O)Nc1nc2ccccc2[nH]1	6.29	–	IC50 (PBLUC_HILL_SLOPE 74.9, PBLUC_R_SQUARED 0.587, read-out: LUCIFERASE INFECTION ASSAY - IC50): 6.11 µM
CC1=CC(C)(C)N(C(=O)c2ccc(F)cc2)c2cc3c(cc21)OCO3	> 9.72	–	IC50 (PBLUC_HILL_SLOPE 1.83, PBLUC_R_SQUARED 0.549, read-out: LUCIFERASE INFECTION ASSAY - IC50): 6.14 µM
CC(C)(C)NC(=S)Nc1ccccc1N1CCCCC1	> 11.3	–	IC50 (HEPG2TOX_HILL_SLOPE 2.33, HEPG2TOX_R_SQUARED 0.936, read-out: LUCIFERASE INFECTION ASSAY - IC50): > 11.3 µM
O=C(CNc1ccc(C(F)(F)F)cc1Cl)Nc1cccc(C(=O)NC2CC2)c1	7.38	–	IC50 (PBLUC_HILL_SLOPE 3.94, PBLUC_R_SQUARED 0.579, read-out: LUCIFERASE INFECTION ASSAY - IC50): 4.23 µM
Cc1cc(C)n(-c2cc(N3CCN(C)CC3)nc(-c3ccccc3)n2)n1	> 9.47	–	IC50 (PBLUC_HILL_SLOPE 14.6, PBLUC_R_SQUARED 0.207, read-out: LUCIFERASE INFECTION ASSAY - IC50): 8.77 µM
Cc1ccc(-c2nc(CN3C(=O)NC4(CCCCCC4)C3=O)cs2)cc1	> 10	–	IC50 (PBLUC_HILL_SLOPE 31.5, PBLUC_R_SQUARED 0.344, read-out: LUCIFERASE INFECTION ASSAY - IC50): 9.91 µM
Nc1nc(CSc2nccc(C(F)(F)F)n2)nc(Nc2ccc(F)cc2)n1	> 10	> 10	–
OC(c1cn2cc(-c3ccc(F)cc3)nc2s1)(C(F)(F)F)C(F)(F)F	6.57	–	IC50 (PBLUC_HILL_SLOPE 0.791, PBLUC_R_SQUARED 0.914, read-out: LUCIFERASE INFECTION ASSAY - IC50): 0.408 µM
O=C(Nc1ccc(F)cc1F)Nc1cc(Cl)sc1Cl	> 10.2	–	IC50 (PBLUC_HILL_SLOPE 1.97, PBLUC_R_SQUARED 0.405, read-out: LUCIFERASE INFECTION ASSAY - IC50): 6.86 µM
CC(C)=CCn1c2ccc(NC(=O)OCCF)cc2c(=O)n1C	> 10.3	> 10.3	–

SMILES	IC90 [µM]	IC50 [1] [µM]	also measured
CN(C)c1ccc(-c2cnc3cnc(-c4ccc(C(=O)NCCO)cc4)cn23)cc1	> 8.22	–	IC50 (PBLUC_HILL_SLOPE 2.64, PBLUC_R_SQUARED 0.078, read-out: LUCIFERASE INFECTION ASSAY - IC50): 6.1 µM
Cc1nn2c(nc(NCc3ccc(Cn4ccnc4)cc3)c3ccccc32)c1Cl	> 10	–	IC50 (FFLUC_HILL_SLOPE 16.1, FFLUC_R_SQUARED 0.458, read-out: LUCIFERASE INFECTION ASSAY - IC50): > 10 µM
Cc1cc(Oc2ccc(NC(=O)Nc3c(-c4c(Cl)cccc4Cl)noc3C)cn2)cc(C)c1Cl	> 6.37	–	IC50 (FFLUC_HILL_SLOPE 16.7, FFLUC_R_SQUARED 0.348, read-out: LUCIFERASE INFECTION ASSAY - IC50): > 6.37 µM
Cn1c(Nc2ccccc2)nc2cnc(-c3ccc(Cl)cc3)cc21	> 10	–	IC50 (PBLUC_HILL_SLOPE 23.8, PBLUC_R_SQUARED 0.319, read-out: LUCIFERASE INFECTION ASSAY - IC50): 9.73 µM
COc1ccc(CCN2C(=O)N(C(C)C)C(=O)C23CCN(Cc2cc4ccccc4[nH]2)CC3)cc1	6.63	–	IC50 (HEPG2TOX_HILL_SLOPE 8.55, HEPG2TOX_R_SQUARED 0.942, PBLUC_HILL_SLOPE 15.5, PBLUC_R_SQUARED 0.628, read-out: LUCIFERASE INFECTION ASSAY - IC50): 5.75 µM
O=C(CCc1cccnc1)Nc1ccc(OC(F)(F)F)cc1	> 10	> 10	–
Brc1ccc(OCc2ccccc2)c(CNCc2cccnc2)c1	> 8.61	> 8.61	–
N#C/C(=N\Nc1ccc(OC(F)(F)F)cc1)S(=O)(=O)c1ccccn1	> 8.91	> 8.91	–
CN(C)c1cc(CNC(=O)c2cc3c(F)cccc3s2)ccn1	7.57	–	IC50 (HEPG2TOX_HILL_SLOPE 10.4, HEPG2TOX_R_SQUARED 0.0222, PBLUC_HILL_SLOPE 5.26, PBLUC_R_SQUARED 0.456, read-out: LUCIFERASE INFECTION ASSAY - IC50): 4.99 µM
CCOc1ccccc1NC(=O)COC(=O)c1cc(S(=O)(=O)Nc2cccc(C)c2)ccc1C	> 10	> 10	–
COC(=O)c1c(CSc2nnnn2C)nc2ccccc2c1-c1ccccc1	> 10	> 10	–
CC(Sc1nnc(/C=C/c2ccc(F)cc2)[nH]1)C(=O)NC(C)(C)C (stereo not given)	5.34	2.09	–
CC(OC(=O)c1cccnc1N)C(=O)Nc1ccc2ccccc2c1 (stereo not given)	> 10	> 10	–
COc1cccc(NC(=O)c2cc(C)n(Cc3cccs3)c2C)c1	> 9.69	–	IC50 (PBLUC_HILL_SLOPE 0.906, PBLUC_R_SQUARED 0.33, read-out: LUCIFERASE INFECTION ASSAY - IC50): 6.44 µM
CC(C)(C)OC(=O)N1CCN(CN2C(=O)NC3(CCCCC3)C2=O)CC1	> 10	> 10	–
COc1cc(-c2nc3ccc(NC(=O)Nc4cccc(C(F)(F)F)c4)cn3n2)cc(OC)c1OC	8.43	–	IC50 (HEPG2TOX_HILL_SLOPE 15.4, HEPG2TOX_R_SQUARED 0.156, PBLUC_HILL_SLOPE 4.31, PBLUC_R_SQUARED 0.169, read-out: LUCIFERASE INFECTION ASSAY - IC50): 5.06 µM
O=C(/C=C/c1csc(-c2ccc(Cl)cc2)n1)c1cccc(O)c1	4.93	–	IC50 (PBLUC_HILL_SLOPE 11.6, PBLUC_R_SQUARED 0.644, read-out: LUCIFERASE INFECTION ASSAY - IC50): 4.08 µM
CN(CC(=O)Nc1ccc(-c2nnc3n2CCCCC3)cc1)C1CCS(=O)(=O)C1 (stereo not given)	> 10	> 10	–
Cc1nc2ncnn2c(Nc2cccc(Cl)c2C)c1Cl	> 10.7	–	IC50 (HEPG2TOX_HILL_SLOPE 3, HEPG2TOX_R_SQUARED 0.869, PBLUC_HILL_SLOPE 3.03, PBLUC_R_SQUARED 0.114, read-out: LUCIFERASE INFECTION ASSAY - IC50): 5.55 µM
O=C(Nc1nc(CN2CCOCC2)cs1)c1ccc(-c2ccc(Cl)cc2)s1	> 10	–	IC50 (HEPG2TOX_HILL_SLOPE 0.481, HEPG2TOX_R_SQUARED 0.864, PBLUC_HILL_SLOPE 0.848, PBLUC_R_SQUARED 0.477, read-out: LUCIFERASE INFECTION ASSAY - IC50): 0.826 µM
c1ccc(-c2csc3nc(-c4ccccn4)nc(Sc4nnc(-c5ccco5)o4)c23)cc1	> 10	> 10	–
O=C(OC1CCCCC1)c1ccc(NC(=O)C2CCCCC2)cc1	> 10	–	IC50 (PBLUC_HILL_SLOPE 6.21, PBLUC_R_SQUARED 0.113, read-out: LUCIFERASE INFECTION ASSAY - IC50): 9.48 µM
